Laboratory results as given in US10301286B2, “Piperazine derivative” (Astellas Pharma Inc., priority 2015, dated 2019).
Where a name gives a salt, the structure may show the parent alone.

The compounds below were run on Male SD rats (assay: Rat erection-inducing action). Settings: 10 mg/kg intravenously, erections up to one hour after administration, vs vehicle, P<0.05.
Format: in vivo
Protocol: Male SD rats (Charles River Laboratories Japan, Inc.) were used. A test compound (10 mg/kg) or the vehicle (20% dimethyl acetamide, 10% Cremophor (registered trademark), 70% physiological saline) was administered intravenously through the tail vein. After administration, the rats were transferred to transparent observation cages made of plastic to measure the erection times of up to one hour after administration. The measurements were carried out for five groups (3 to 7 animals per group): vehicle groups, Example compound groups (Ex 87, 88, and 89), and THIQ group, which had been known as an MC4 receptor agonist (J. Med. Chem., 45, 4589-4593 (2002)), as a positive control. For a statistical significance test, Dunnett's multiple comparison test was used for the comparison with vehicle control group, and it was determined whether there was an erection-inducing effect with a statistically significant difference (P<0.05).
In the case of `Cc1cc(C)c(C[C@@H](C(=O)O)N2CCN(C(=O)[C@@H]3CN(C4CCOCC4)C[C@H]3c3ccc(Cl)cc3F)[C@@H](C)C2)c(F)c1` [Example 88], the erection-inducing effect is reported as “did not exhibit an erection-inducing effect”. For `Cc1cc(C)c(C[C@@H](C(=O)O)N2CCN(C(=O)[C@@H]3CN(C(C)(C)C)C[C@H]3c3ccc(Cl)cc3F)[C@@H](C)C2)c(C)c1` [Example 89], the erection-inducing effect was “did not exhibit an erection-inducing effect”. In the case of `Cc1ccc(C[C@@H](C(=O)O)N2CCN(C(=O)[C@@H]3CN(C4CCOCC4)C[C@H]3c3ccc(Cl)cc3F)[C@@H](C)C2)c(F)c1` [Example 87, (2S)-2-[(3S)-4-{[(3S,4R)-4-(4-chloro-2-fluorophenyl)-1-(tetrahydro-2H-pyran-4-yl)pyrrolidin-3-yl]carbonyl}-3-methylpiperazin-1-yl]-3-(2-fluoro-4-methylphenyl)propanoic acid dihydrochloride], the erection-inducing effect is reported as “did not exhibit an erection-inducing effect”.
